Data reported in article PMC11480411, “Mucosal sugars delineate pyrazine vs pyrazinone autoinducer signaling in Klebsiella oxytoca” (Nature Communications, 2024).
“And” between values parts separate entries of the source, which are not always exact repeats. Equal values may be shown once.

Key:
Type in all cases: cell-based
GPR21 = target: T1, GPR21 (Homo sapiens, UniProt Q99679); assay: PRESTO-Tango GPCR screen; conditions: 100 µM
T1 construct: purchased PRESTO-Tango GPCR kit (Roth lab / Addgene)
Outline: (§1)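 Cells were HTLA, a HEK293 line carrying β-arrestin-TEV and tTA-luciferase, transfected with each receptor-Tango plasmid, then exposed to compound at 100 μM final for 20 h.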

GPR44 = target: T2, GPR44 (Homo sapiens, UniProt Q9Y5Y4); assay: PRESTO-Tango GPCR screen; conditions: 100 µM
T2 construct: purchased PRESTO-Tango GPCR kit (Roth lab / Addgene)
T2 sequence (Q9Y5Y4 whole entry): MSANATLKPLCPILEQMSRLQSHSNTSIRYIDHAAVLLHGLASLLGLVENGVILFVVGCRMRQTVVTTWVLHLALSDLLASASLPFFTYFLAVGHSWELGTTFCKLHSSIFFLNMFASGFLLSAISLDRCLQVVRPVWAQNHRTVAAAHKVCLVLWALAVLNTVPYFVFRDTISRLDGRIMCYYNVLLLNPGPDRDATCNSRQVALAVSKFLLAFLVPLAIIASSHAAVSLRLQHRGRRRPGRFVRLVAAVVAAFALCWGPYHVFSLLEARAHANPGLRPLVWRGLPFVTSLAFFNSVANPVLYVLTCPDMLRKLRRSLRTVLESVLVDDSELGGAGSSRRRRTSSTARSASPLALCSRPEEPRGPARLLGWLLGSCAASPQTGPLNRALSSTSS
Outline: as §1

ADORA1 = target: T3, ADORA1 (Homo sapiens, UniProt P30542); assay: PRESTO-Tango GPCR screen; conditions: 100 µM
T3 construct: purchased PRESTO-Tango GPCR kit (Roth lab / Addgene)
Outline: as §1

HCTR1 = target: T4, HCTR1 (Homo sapiens, UniProt O43613); assay: PRESTO-Tango GPCR screen; conditions: 100 µM
T4 construct: purchased PRESTO-Tango GPCR kit (Roth lab / Addgene)
Outline: as §1

NMUR1 = target: T5, NMUR1 (Homo sapiens, UniProt Q9HB89); assay: PRESTO-Tango GPCR screen; conditions: 100 µM
T5 construct: purchased PRESTO-Tango GPCR kit (Roth lab / Addgene)
T5 sequence (Q9HB89 whole entry): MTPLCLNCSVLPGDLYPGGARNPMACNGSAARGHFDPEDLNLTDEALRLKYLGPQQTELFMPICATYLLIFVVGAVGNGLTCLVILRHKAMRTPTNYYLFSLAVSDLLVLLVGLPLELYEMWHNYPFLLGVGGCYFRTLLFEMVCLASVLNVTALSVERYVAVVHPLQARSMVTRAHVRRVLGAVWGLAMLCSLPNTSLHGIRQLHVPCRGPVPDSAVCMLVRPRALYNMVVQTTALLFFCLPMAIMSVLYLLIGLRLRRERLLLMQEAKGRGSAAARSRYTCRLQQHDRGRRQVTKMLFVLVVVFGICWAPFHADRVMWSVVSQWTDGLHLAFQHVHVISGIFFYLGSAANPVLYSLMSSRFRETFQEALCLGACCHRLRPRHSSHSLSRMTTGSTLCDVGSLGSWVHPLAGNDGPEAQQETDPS
Outline: as §1

GPR45 = target: T6, GPR45 (Homo sapiens, UniProt Q9Y5Y3); assay: PRESTO-Tango GPCR screen; conditions: 100 µM
T6 construct: purchased PRESTO-Tango GPCR kit (Roth lab / Addgene)
T6 sequence (Q9Y5Y3 whole entry): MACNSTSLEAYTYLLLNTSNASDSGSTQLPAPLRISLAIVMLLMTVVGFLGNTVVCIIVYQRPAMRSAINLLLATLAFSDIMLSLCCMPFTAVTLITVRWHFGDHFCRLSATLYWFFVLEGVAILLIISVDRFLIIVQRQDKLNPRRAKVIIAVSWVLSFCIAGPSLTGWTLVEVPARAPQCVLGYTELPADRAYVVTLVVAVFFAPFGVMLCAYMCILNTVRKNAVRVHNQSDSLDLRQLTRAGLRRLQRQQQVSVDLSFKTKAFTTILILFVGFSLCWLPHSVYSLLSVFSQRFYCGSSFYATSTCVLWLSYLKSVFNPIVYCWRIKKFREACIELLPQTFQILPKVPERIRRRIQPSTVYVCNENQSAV
Outline: as §1

GPRC5B = target: T7, GPRC5B (Homo sapiens, UniProt Q9NZH0); assay: PRESTO-Tango GPCR screen; conditions: 100 µM
T7 construct: purchased PRESTO-Tango GPCR kit (Roth lab / Addgene)
Outline: as §1

ADCYAP1R1 = target: T8, ADCYAP1R1 (Homo sapiens, UniProt P41586); assay: PRESTO-Tango GPCR screen; conditions: 100 µM
T8 construct: purchased PRESTO-Tango GPCR kit (Roth lab / Addgene)
Outline: as §1

GPR25 = target: T9, GPR25 (Homo sapiens, UniProt O00155); assay: PRESTO-Tango GPCR screen; conditions: 100 µM
T9 construct: purchased PRESTO-Tango GPCR kit (Roth lab / Addgene)
T9 sequence (O00155 whole entry): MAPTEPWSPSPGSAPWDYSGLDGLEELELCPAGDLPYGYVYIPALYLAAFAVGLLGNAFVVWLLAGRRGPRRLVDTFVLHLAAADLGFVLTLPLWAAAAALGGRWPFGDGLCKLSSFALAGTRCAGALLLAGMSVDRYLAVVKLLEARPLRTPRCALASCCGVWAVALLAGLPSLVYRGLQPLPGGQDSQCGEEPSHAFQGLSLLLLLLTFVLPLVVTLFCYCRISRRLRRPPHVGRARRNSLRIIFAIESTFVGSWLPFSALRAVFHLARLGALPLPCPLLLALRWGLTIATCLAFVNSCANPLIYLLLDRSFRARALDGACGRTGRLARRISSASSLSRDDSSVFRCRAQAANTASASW
Outline: as §1

MTNR1B = target: T10, MTNR1B (Homo sapiens, UniProt P49286); assay: PRESTO-Tango GPCR screen; conditions: 100 µM
T10 construct: purchased PRESTO-Tango GPCR kit (Roth lab / Addgene)
Outline: as §1

AVPR1B = target: T11, AVPR1B (Homo sapiens, UniProt P47901); assay: PRESTO-Tango GPCR screen; conditions: 100 µM
T11 construct: purchased PRESTO-Tango GPCR kit (Roth lab / Addgene)
Outline: as §1

CXCR3 = target: T12, CXCR3 (Homo sapiens, UniProt P49682); assay: PRESTO-Tango GPCR screen; conditions: 100 µM
T12 construct: purchased PRESTO-Tango GPCR kit (Roth lab / Addgene)
Outline: as §1

GPR113 = target: T13, GPR113 (Homo sapiens, UniProt Q8IZF5); assay: PRESTO-Tango GPCR screen; conditions: 100 µM
T13 construct: purchased PRESTO-Tango GPCR kit (Roth lab / Addgene)
Outline: as §1

GPR149 = target: T14, GPR149 (Homo sapiens, UniProt Q86SP6); assay: PRESTO-Tango GPCR screen; conditions: 100 µM
T14 construct: purchased PRESTO-Tango GPCR kit (Roth lab / Addgene)
Outline: as §1

APJ = target: T15, APJ (Homo sapiens, UniProt P35414); assay: PRESTO-Tango GPCR screen; conditions: 100 µM
T15 construct: purchased PRESTO-Tango GPCR kit (Roth lab / Addgene)
Outline: as §1

HTR6 = target: T16, HTR6 (Homo sapiens, UniProt P50406); assay: PRESTO-Tango GPCR screen; conditions: 100 µM
T16 construct: purchased PRESTO-Tango GPCR kit (Roth lab / Addgene)
T16 sequence (P50406 whole entry): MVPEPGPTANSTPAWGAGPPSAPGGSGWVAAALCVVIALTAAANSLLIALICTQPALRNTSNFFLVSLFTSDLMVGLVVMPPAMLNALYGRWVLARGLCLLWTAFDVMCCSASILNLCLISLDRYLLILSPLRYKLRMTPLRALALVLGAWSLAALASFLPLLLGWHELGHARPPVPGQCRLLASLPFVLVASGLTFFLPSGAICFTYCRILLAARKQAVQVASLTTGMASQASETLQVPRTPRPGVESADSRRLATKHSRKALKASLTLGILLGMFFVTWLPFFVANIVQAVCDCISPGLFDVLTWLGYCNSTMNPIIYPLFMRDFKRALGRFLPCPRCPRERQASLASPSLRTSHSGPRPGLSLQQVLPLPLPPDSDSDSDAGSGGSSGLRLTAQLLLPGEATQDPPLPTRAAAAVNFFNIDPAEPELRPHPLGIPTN
Outline: as §1

FPR3 = target: T17, FPR3 (Homo sapiens, UniProt P25089); assay: PRESTO-Tango GPCR screen; conditions: 100 µM
T17 construct: purchased PRESTO-Tango GPCR kit (Roth lab / Addgene)
Outline: as §1

GPR65 = target: T18, GPR65 (Homo sapiens, UniProt Q8IYL9); assay: PRESTO-Tango GPCR screen; conditions: 100 µM
T18 construct: purchased PRESTO-Tango GPCR kit (Roth lab / Addgene)
Outline: as §1

CYSLTR2 = target: T19, CYSLTR2 (Homo sapiens, UniProt Q9NS75); assay: PRESTO-Tango GPCR screen; conditions: 100 µM
T19 construct: purchased PRESTO-Tango GPCR kit (Roth lab / Addgene)
Outline: as §1

ELTD1 = target: T20, ELTD1 (Homo sapiens, UniProt Q9HBW9); assay: PRESTO-Tango GPCR screen; conditions: 100 µM
T20 construct: purchased PRESTO-Tango GPCR kit (Roth lab / Addgene)
Outline: as §1

HTR5 = target: T21, HTR5 (Homo sapiens, UniProt P47898); assay: PRESTO-Tango GPCR screen; conditions: 100 µM
T21 construct: purchased PRESTO-Tango GPCR kit (Roth lab / Addgene)
T21 sequence (P47898 whole entry): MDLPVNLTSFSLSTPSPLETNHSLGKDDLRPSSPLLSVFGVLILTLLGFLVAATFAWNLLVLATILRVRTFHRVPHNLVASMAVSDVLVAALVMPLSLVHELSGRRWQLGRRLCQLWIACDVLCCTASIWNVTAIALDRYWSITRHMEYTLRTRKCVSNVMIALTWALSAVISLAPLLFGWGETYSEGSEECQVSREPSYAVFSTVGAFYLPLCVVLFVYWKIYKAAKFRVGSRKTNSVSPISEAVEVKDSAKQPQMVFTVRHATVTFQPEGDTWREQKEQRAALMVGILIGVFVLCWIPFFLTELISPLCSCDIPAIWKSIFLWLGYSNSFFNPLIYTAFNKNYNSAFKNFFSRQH
Outline: as §1

GPR153 = target: T22, GPR153 (Homo sapiens, UniProt Q6NV75); assay: PRESTO-Tango GPCR screen; conditions: 100 µM
T22 construct: purchased PRESTO-Tango GPCR kit (Roth lab / Addgene)
T22 sequence (Q6NV75 whole entry): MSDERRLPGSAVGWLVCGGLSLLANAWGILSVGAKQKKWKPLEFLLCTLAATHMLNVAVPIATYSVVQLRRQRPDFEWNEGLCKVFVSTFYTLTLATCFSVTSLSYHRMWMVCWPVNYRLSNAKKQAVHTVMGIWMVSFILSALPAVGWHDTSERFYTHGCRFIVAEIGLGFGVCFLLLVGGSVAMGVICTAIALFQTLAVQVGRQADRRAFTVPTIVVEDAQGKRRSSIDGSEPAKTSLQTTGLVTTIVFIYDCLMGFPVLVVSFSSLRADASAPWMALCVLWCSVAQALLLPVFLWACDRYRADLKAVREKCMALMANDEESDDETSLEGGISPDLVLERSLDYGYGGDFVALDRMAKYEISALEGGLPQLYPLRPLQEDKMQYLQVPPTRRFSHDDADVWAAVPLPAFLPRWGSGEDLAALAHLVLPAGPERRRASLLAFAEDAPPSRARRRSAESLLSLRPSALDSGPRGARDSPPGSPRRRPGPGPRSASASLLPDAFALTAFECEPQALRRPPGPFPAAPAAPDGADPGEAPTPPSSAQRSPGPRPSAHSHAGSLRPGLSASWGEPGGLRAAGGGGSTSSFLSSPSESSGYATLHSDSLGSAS
Outline: as §1

CXCR6 = target: T23, CXCR6 (Homo sapiens, UniProt O00574); assay: PRESTO-Tango GPCR screen; conditions: 100 µM
T23 construct: purchased PRESTO-Tango GPCR kit (Roth lab / Addgene)
T23 sequence (O00574 whole entry): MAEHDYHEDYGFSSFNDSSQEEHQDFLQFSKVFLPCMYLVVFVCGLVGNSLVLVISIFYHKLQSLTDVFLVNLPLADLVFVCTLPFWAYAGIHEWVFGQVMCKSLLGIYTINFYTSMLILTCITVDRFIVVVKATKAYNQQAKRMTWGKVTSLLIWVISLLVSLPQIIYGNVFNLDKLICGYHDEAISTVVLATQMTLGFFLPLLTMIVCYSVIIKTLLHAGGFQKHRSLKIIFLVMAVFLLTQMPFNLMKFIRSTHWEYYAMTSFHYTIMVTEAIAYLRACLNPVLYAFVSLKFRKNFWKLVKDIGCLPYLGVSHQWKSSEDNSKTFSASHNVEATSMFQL
Outline: as §1

F2RL3 = target: T24, F2RL3 (Homo sapiens, UniProt Q96RI0); assay: PRESTO-Tango GPCR screen; conditions: 100 µM
T24 construct: purchased PRESTO-Tango GPCR kit (Roth lab / Addgene)
Outline: as §1

AGTR1 = target: T25, AGTR1 (Homo sapiens, UniProt P30556); assay: PRESTO-Tango GPCR screen; conditions: 100 µM
T25 construct: purchased PRESTO-Tango GPCR kit (Roth lab / Addgene)
T25 sequence (P30556 whole entry): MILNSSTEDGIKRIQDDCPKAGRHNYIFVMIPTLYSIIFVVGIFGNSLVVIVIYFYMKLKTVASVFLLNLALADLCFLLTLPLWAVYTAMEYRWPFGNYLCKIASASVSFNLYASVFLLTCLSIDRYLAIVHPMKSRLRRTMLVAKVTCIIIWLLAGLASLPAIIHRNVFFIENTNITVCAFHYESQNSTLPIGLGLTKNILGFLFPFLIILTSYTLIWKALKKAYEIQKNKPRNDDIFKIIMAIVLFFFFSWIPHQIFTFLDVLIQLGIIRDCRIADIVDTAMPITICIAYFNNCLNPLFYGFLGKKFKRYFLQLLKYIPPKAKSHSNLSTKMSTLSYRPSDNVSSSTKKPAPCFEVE
Outline: as §1

MC2R = target: T26, MC2R (Homo sapiens, UniProt Q01718); assay: PRESTO-Tango GPCR screen; conditions: 100 µM
T26 construct: purchased PRESTO-Tango GPCR kit (Roth lab / Addgene)
T26 sequence (Q01718 whole entry): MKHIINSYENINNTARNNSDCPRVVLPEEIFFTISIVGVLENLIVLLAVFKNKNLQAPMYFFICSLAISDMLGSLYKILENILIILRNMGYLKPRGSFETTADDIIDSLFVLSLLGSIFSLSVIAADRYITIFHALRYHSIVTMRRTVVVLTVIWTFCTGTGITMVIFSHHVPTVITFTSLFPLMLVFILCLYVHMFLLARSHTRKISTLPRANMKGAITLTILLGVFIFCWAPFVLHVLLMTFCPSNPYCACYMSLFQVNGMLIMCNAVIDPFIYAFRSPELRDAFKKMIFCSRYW
Outline: as §1

HRH3 = target: T27, HRH3 (Homo sapiens, UniProt Q9Y5N1); assay: PRESTO-Tango GPCR screen and dose-response; conditions: for HRH3 dose-response raw reporter signal (Fig. 5b source data): replicate wells
T27 construct: expressed in transfected cells; host or cells: HTLA cells (HEK293 line stably expressing β-arrestin-TEV and tTA-Luciferase)
T27 sequence (Q9Y5N1 whole entry): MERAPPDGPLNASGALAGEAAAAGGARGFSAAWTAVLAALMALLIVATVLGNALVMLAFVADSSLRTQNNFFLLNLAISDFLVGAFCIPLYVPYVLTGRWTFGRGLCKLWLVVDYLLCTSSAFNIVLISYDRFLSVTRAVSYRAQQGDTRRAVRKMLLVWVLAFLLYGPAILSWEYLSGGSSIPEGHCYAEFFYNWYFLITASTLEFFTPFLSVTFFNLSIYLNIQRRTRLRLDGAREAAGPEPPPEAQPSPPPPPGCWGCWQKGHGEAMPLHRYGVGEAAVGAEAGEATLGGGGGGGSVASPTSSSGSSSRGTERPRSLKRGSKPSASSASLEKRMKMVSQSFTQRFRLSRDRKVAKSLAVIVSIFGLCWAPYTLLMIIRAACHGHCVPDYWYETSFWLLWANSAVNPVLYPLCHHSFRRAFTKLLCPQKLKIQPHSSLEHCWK
Outline: (§2)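 HEK293 HTLA line (stable β-arrestin-TEV, tTA-luciferase); receptor-Tango transient transfection, PEI; 20 h compound exposure at 100 μM final; luciferase luminescence; fold vs PBS. Dose curves 10^−4–10^−15 M.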

HRH1 = target: T28, HRH1 (Homo sapiens, UniProt P35367); assay: PRESTO-Tango GPCR screen and dose-response; conditions: for HRH1 dose-response raw reporter signal (Fig. 5b source data): replicate wells
T28 construct: expressed in transfected cells; host or cells: HTLA cells (HEK293 line stably expressing β-arrestin-TEV and tTA-Luciferase)
T28 sequence (P35367 whole entry): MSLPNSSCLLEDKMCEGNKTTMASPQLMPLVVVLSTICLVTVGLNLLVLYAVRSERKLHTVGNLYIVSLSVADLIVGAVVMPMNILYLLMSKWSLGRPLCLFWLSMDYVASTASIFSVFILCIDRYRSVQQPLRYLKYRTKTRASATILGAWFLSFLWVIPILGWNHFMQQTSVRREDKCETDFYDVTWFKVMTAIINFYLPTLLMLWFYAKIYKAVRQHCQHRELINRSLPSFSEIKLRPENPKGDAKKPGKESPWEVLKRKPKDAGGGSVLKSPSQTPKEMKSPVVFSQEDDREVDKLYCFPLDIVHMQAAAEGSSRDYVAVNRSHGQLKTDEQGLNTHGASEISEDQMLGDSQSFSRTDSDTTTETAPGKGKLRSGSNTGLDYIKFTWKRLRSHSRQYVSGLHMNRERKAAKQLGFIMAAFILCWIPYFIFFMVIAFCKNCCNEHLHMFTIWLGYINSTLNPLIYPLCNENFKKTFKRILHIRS
Outline: as §2

GPCR activation (heatmap value) (GPR21): 0.4357
GPCR activation (heatmap value) (GPR44): 0.02511
GPCR activation (heatmap value) (ADORA1): 0.08121
GPCR activation (heatmap value) (HCTR1): 0.1163
GPCR activation (heatmap value) (NMUR1): 0.8213
GPCR activation (heatmap value) (GPR45): -0.6461
GPCR activation (heatmap value) (GPRC5B): 0.238
GPCR activation (heatmap value) (ADCYAP1R1): 0.1231
GPCR activation (heatmap value) (GPR25): -0.6766
GPCR activation (heatmap value) (MTNR1B): 0.08839
GPCR activation (heatmap value) (AVPR1B): -0.01402
GPCR activation (heatmap value) (CXCR3): 0.846
GPCR activation (heatmap value) (GPR113): -0.1784
GPCR activation (heatmap value) (GPR149): 0.01685
GPCR activation (heatmap value) (APJ): 0.4932
GPCR activation (heatmap value) (HTR6): -0.2493
GPCR activation (heatmap value) (FPR3): 0.135
GPCR activation (heatmap value) (GPR65): 0.1433
GPCR activation (heatmap value) (CYSLTR2): -0.09894
GPCR activation (heatmap value) (ELTD1): 0.08719
GPCR activation (heatmap value) (HTR5): 0.4039
GPCR activation (heatmap value) (GPR153): -0.4672
GPCR activation (heatmap value) (CXCR6): 1.014
GPCR activation (heatmap value) (F2RL3): -0.0006117
GPCR activation (heatmap value) (AGTR1): 0.01764
GPCR activation (heatmap value) (MC2R): -0.5707
GPCR activation (heatmap value) (HRH3; HRH3, 100 µM): -0.5013
HRH3 dose-response raw reporter signal (Fig. 5b source data) (HRH3; Log(10)Conc (M) -4): 262 and 192 and 404
HRH3 dose-response raw reporter signal (Fig. 5b source data) (HRH3; Log(10)Conc (M) -5): 245 and 283 and 383
HRH3 dose-response raw reporter signal (Fig. 5b source data) (HRH3; Log(10)Conc (M) -6): 192 and 292 and 463
HRH3 dose-response raw reporter signal (Fig. 5b source data) (HRH3; Log(10)Conc (M) -7): 286 and 312 and 310
HRH3 dose-response raw reporter signal (Fig. 5b source data) (HRH3; Log(10)Conc (M) -8): 174 and 312 and 371
HRH3 dose-response raw reporter signal (Fig. 5b source data) (HRH3; Log(10)Conc (M) -9): 227 and 248 and 307
HRH3 dose-response raw reporter signal (Fig. 5b source data) (HRH3; Log(10)Conc (M) -10): 124 and 254 and 251
HRH3 dose-response raw reporter signal (Fig. 5b source data) (HRH3; Log(10)Conc (M) -11): 177 and 189 and 218
HRH3 dose-response raw reporter signal (Fig. 5b source data) (HRH3; Log(10)Conc (M) -12): 112 and 153 and 198
HRH3 dose-response raw reporter signal (Fig. 5b source data) (HRH3; Log(10)Conc (M) -13): 130 and 206 and 248
HRH3 dose-response raw reporter signal (Fig. 5b source data) (HRH3; Log(10)Conc (M) -14): 97 and 162 and 233
HRH3 dose-response raw reporter signal (Fig. 5b source data) (HRH3; Log(10)Conc (M) -15): 150 and 124 (2×)
GPCR activation (heatmap value) (HRH1; HRH1, 100 µM): 0.1843
HRH1 dose-response raw reporter signal (Fig. 5b source data) (HRH1; Log(10)Conc (M) -4): 49786 and 49898
HRH1 dose-response raw reporter signal (Fig. 5b source data) (HRH1; Log(10)Conc (M) -5): 48910 and 46012
HRH1 dose-response raw reporter signal (Fig. 5b source data) (HRH1; Log(10)Conc (M) -6): 48701 and 46228
HRH1 dose-response raw reporter signal (Fig. 5b source data) (HRH1; Log(10)Conc (M) -7): 46626 and 44830
HRH1 dose-response raw reporter signal (Fig. 5b source data) (HRH1; Log(10)Conc (M) -8): 47613 and 46402
HRH1 dose-response raw reporter signal (Fig. 5b source data) (HRH1; Log(10)Conc (M) -9): 46045 and 44597
HRH1 dose-response raw reporter signal (Fig. 5b source data) (HRH1; Log(10)Conc (M) -10): 46658 and 45508
HRH1 dose-response raw reporter signal (Fig. 5b source data) (HRH1; Log(10)Conc (M) -11): 45821 and 45927
HRH1 dose-response raw reporter signal (Fig. 5b source data) (HRH1; Log(10)Conc (M) -12): 46189 and 46705
HRH1 dose-response raw reporter signal (Fig. 5b source data) (HRH1; Log(10)Conc (M) -13): 47852 and 47304
HRH1 dose-response raw reporter signal (Fig. 5b source data) (HRH1; Log(10)Conc (M) -14): 47480 and 47139
HRH1 dose-response raw reporter signal (Fig. 5b source data) (HRH1; Log(10)Conc (M) -15): 43822 and 41222
Compound: CC(C)Cc1ncc(CCCCNC(=N)N)[nH]c1=O [3-Homo]
